Source: patent publication US4288590A, “7 -[Dα-(4-Hydroxy-1,5-naphthyridine-3-carboxamido)-α-arylacetam ido]-3-(N,N-dimethyl-aminomethylpyridinium) methyl-3-cephem-4-carboxylates” (Bristol-Myers Company, priority 1980, dated 1981)
Structures can show the parent of a compound that is named as a salt.

Tests used:
[1] = Mouse blood levels after intramuscular administration (Table 3); format: in vivo; settings: im, read-out: Blood level; for concentration at 0.25 h: 15'; for concentration at 0.5 h: 30'; for concentration at 1 h: 60'; for concentration at 2 h: 120'
Description: (§1) […] The blood samples were collected from the orbital sinuses into heparinized capillary tubes at 15, 30, 60 and 120 minutes after administration. The antibiotic concentration was determined by the paper disc-agar diffusion method using E. coli NIHJ or S. lutea PCI 1001 as the assay organism.

[2] = system: P. aeruginosa A9843; experiment: In vivo efficacy, experimental infection in mice; settings: Pseudomonas aeruginosa, A9843, in Mus musculus, im, 120 h, read-out: PD50 (median protective dose)
Description: (§3) The mice were treated with test compound by im route immediately after the bacterial challenge.

[3] = system: P. mirabilis A9900; experiment: In vivo efficacy, experimental infection in mice; settings: Proteus mirabilis, A9900, in Mus musculus, im, 120 h, read-out: PD50 (median protective dose)
Description: as §3

[4] = system: S. pyogenes A20201; experiment: In vivo efficacy, experimental infection in mice; settings: Streptococcus pyogenes, A20201, in Mus musculus, im, 120 h, read-out: PD50 (median protective dose)
Description: as §3

[5] = Additional mouse blood levels after intramuscular administration (Table 4); format: in vivo; settings: mice, im, read-out: Blood level
Description: as §1

[6] = system: S. pneumoniae; experiment: In vitro activity, MIC of strain group (Table 2); format: cell-based; settings: Streptococcus pneumoniae; Gp-II S. pneumoniae, 9 strains; read-out: Geometric mean of MIC
Description: (§2) Minimum inhibitory concentrations (MIC) of BB-S 651, BB-S 669 and BB-S 676 were determined by serial two-fold agar dilution method using Steers' apparatus on Mueller-Hinton agar plate against 15 test organisms for primary screening as shown in Table 1.

[7] = system: H. influenzae; experiment: In vitro activity, MIC of strain group (Table 2); format: cell-based; settings: Haemophilus influenzae; Gn-IV H. influenzae, 4 strains; read-out: Geometric mean of MIC
Description: as §2

[8] = system: P. mirabilis (Gn-Ib); experiment: In vitro activity, MIC of strain group (Table 2); format: cell-based; settings: Proteus mirabilis, 2 strains, read-out: Geometric mean of MIC
Description: as §2

[9] = system: P. stuartii; experiment: In vitro activity, MIC of strain group (Table 2); format: cell-based; settings: Providencia stuartii; Gn-II P. stuartii, 5 strains; read-out: Geometric mean of MIC
Description: as §2

[10] = system: S. marcescens; experiment: In vitro activity, MIC of strain group (Table 2); format: cell-based; settings: Serratia marcescens; Gn-II S. marcescens, 10 strains; read-out: Geometric mean of MIC
Description: as §2

[11] = system: P. mirabilis (Gn-Ia); experiment: In vitro activity, MIC of strain group (Table 2); format: cell-based; settings: Proteus mirabilis, 6 strains, read-out: Geometric mean of MIC
Description: as §2

[12] = system: S. pyogenes; experiment: In vitro activity, MIC of strain group (Table 2); format: cell-based; settings: Streptococcus pyogenes; Gp-II S. pyogenes, 10 strains; read-out: Geometric mean of MIC
Description: as §2

[13] = system: K. pneumoniae (Gn-Ib); experiment: In vitro activity, MIC of strain group (Table 2); format: cell-based; settings: Klebsiella pneumoniae, 5 strains, read-out: Geometric mean of MIC
Description: as §2

[14] = system: S. aureus (Gp-Ib); experiment: In vitro activity, MIC of strain group (Table 2); format: cell-based; settings: Staphylococcus aureus, 16 strains, read-out: Geometric mean of MIC
Description: as §2

[15] = system: E. coli (Gn-Ia); experiment: In vitro activity, MIC of strain group (Table 2); format: cell-based; settings: Escherichia coli, 7 strains, read-out: Geometric mean of MIC
Description: as §2

[16] = system: K. pneumoniae (Gn-Ia); experiment: In vitro activity, MIC of strain group (Table 2); format: cell-based; settings: Klebsiella pneumoniae, 10 strains, read-out: Geometric mean of MIC
Description: as §2

[17] = system: Neisseria sp.; experiment: In vitro activity, MIC of strain group (Table 2); format: cell-based; settings: Gn-IV Neisseria sp., 6 strains; read-out: Geometric mean of MIC
Description: as §2

[18] = system: P. aeruginosa; experiment: In vitro activity, MIC of strain group (Table 2); format: cell-based; settings: Pseudomonas aeruginosa; Gn-III P. aeruginosa, 32 strains; read-out: Geometric mean of MIC
Description: as §2

[19] = system: Indole(+) Proteus sp.; experiment: In vitro activity, MIC of strain group (Table 2); format: cell-based; settings: Gn-II Indole(+) Proteus sp., 8 strains; read-out: Geometric mean of MIC
Description: as §2

[20] = system: P. putida; experiment: In vitro activity, MIC of strain group (Table 2); format: cell-based; settings: Pseudomonas putida; Gn-III P. putida, 5 strains; read-out: Geometric mean of MIC
Description: as §2

[21] = system: P. maltophilia; experiment: In vitro activity, MIC of strain group (Table 2); format: cell-based; settings: Stenotrophomonas maltophilia; Gn-III P. maltophilia, 13 strains; read-out: Geometric mean of MIC
Description: as §2

[22] = system: P. cepacia; experiment: In vitro activity, MIC of strain group (Table 2); format: cell-based; settings: Burkholderia cepacia; Gn-III P. cepacia, 4 strains; read-out: Geometric mean of MIC
Description: as §2

[23] = system: S. aureus (Gp-Ia); experiment: In vitro activity, MIC of strain group (Table 2); format: cell-based; settings: Staphylococcus aureus, 12 strains, read-out: Geometric mean of MIC
Description: as §2

[24] = system: E. coli (Gn-Ib); experiment: In vitro activity, MIC of strain group (Table 2); format: cell-based; settings: Escherichia coli, 13 strains, read-out: Geometric mean of MIC
Description: as §2

[25] = system: S. aureus BX-1633 A9606; experiment: In vivo efficacy, experimental infection in mice; settings: Staphylococcus aureus, BX1633A9606, in Mus musculus, im, 120 h, read-out: PD50 (median protective dose)
Description: as §3

[26] = system: P. aeruginosa A21509; experiment: In vivo efficacy, experimental infection in mice; settings: Pseudomonas aeruginosa, A21509, in Mus musculus, im, 120 h, read-out: PD50 (median protective dose)
Description: as §3

CCN1CCN(C(=O)N[C@@H](C(=O)N[C@@H]2C(=O)N3C(C(=O)O)=C(CSc4nnnn4C)CS[C@H]23)c2ccc(O)cc2)C(=O)C1=O [Cefoperazone, reference compound]
concentration at 0.25 h ([1]; 10 mg/kg): 3500 ng/mL | concentration at 0.5 h ([1]; 10 mg/kg): 1800 ng/mL | concentration at 1 h ([1]; 10 mg/kg): < 400 ng/mL | concentration at 2 h ([1]; 10 mg/kg): < 400 ng/mL | concentration at 0.25 h ([1]; 20 mg/kg): 9000 ng/mL | concentration at 0.5 h ([1]; 20 mg/kg): 5500 ng/mL | concentration at 1 h ([1]; 20 mg/kg): 1300 ng/mL | concentration at 2 h ([1]; 20 mg/kg): < 400 ng/mL | concentration at 0.25 h ([1]; 40 mg/kg): 19000 ng/mL | concentration at 0.5 h ([1]; 40 mg/kg): 14000 ng/mL | concentration at 1 h ([1]; 40 mg/kg): 2500 ng/mL | concentration at 2 h ([1]; 40 mg/kg): < 400 ng/mL | ED50 [2]: 20 mg/kg | ED50 [3]: 6.3 mg/kg | ED50 [4]: 2.5 mg/kg | concentration at 0.5 h ([5]; 10 mg/kg, dose 10, 1/2 hour): 3500 ng/mL | concentration at 0.25 h ([5]; 10 mg/kg, dose 10, 1/4 hour): 5000 ng/mL | concentration at 1 h ([5]; 10 mg/kg, dose 10, 1 hour): 1200 ng/mL | concentration at 2 h ([5]; 10 mg/kg, dose 10, 2 hour): < 800 ng/mL | concentration at 0.5 h ([5]; 20 mg/kg, dose 20, 1/2 hour): 6300 ng/mL | concentration at 0.25 h ([5]; 20 mg/kg, dose 20, 1/4 hour): 10500 ng/mL | concentration at 1 h ([5]; 20 mg/kg, dose 20, 1 hour): 2500 ng/mL | concentration at 2 h ([5]; 20 mg/kg, dose 20, 2 hour): < 800 ng/mL | concentration at 0.5 h ([5]; 40 mg/kg, 1/2 hour): 12000 ng/mL | concentration at 0.25 h ([5]; 40 mg/kg, 1/4 hour): 18000 ng/mL | concentration at 1 h ([5]; 40 mg/kg, 1 hour): 5400 ng/mL | concentration at 2 h ([5]; 40 mg/kg, 2 hour): 1200 ng/mL | MIC [6]: 0.8 µg/mL | MIC [7]: 0.8 µg/mL | MIC [8]: 12.5 µg/mL | MIC [9]: 0.8 µg/mL | MIC [10]: 47 µg/mL | MIC [11]: 0.8 µg/mL | MIC [12]: 0.2 µg/mL | MIC [13]: 100 µg/mL | MIC [14]: 17 µg/mL | MIC [15]: 0.2 µg/mL | MIC [16]: 0.9 µg/mL | MIC [17]: 0.8 µg/mL | MIC [18]: 11 µg/mL | MIC [19]: 3.5 µg/mL | MIC [20]: > 100 µg/mL | MIC [21]: 47 µg/mL | MIC [22]: > 100 µg/mL | MIC [23]: 1.6 µg/mL | MIC [24]: 3.7 µg/mL | ED50 [25]: 1.6 mg/kg | ED50 [26]: 30 mg/kg

CN(C)Cc1ccc[n+](CC2=C(C(=O)[O-])N3C(=O)C(NC(=O)[C@H](NC(=O)c4cnc5cccnc5c4O)c4ccc(O)cc4)C3SC2)c1 (stereo partly drawn) [BB-S 651, 7-[D-α-(4-Hydroxy-1,5-naphthyridine-3-carboxamido)-α-(4-hydroxyphenyl)acetamido]-3-(3-N,N-dimethylaminomethylpyridinium)methyl-3-cephem-4-carboxylate Hydrochloride]
concentration at 0.25 h ([1]; 10 mg/kg): 5000 ng/mL | concentration at 0.5 h ([1]; 10 mg/kg): 3000 ng/mL | concentration at 1 h ([1]; 10 mg/kg): < 400 ng/mL | concentration at 2 h ([1]; 10 mg/kg): < 400 ng/mL | concentration at 0.25 h ([1]; 20 mg/kg): 11000 ng/mL | concentration at 0.5 h ([1]; 20 mg/kg): 9000 ng/mL | concentration at 1 h ([1]; 20 mg/kg): 5000 ng/mL | concentration at 2 h ([1]; 20 mg/kg): < 400 ng/mL | concentration at 0.25 h ([1]; 40 mg/kg): 25000 ng/mL | concentration at 0.5 h ([1]; 40 mg/kg): 18000 ng/mL | concentration at 1 h ([1]; 40 mg/kg): 11000 ng/mL | concentration at 2 h ([1]; 40 mg/kg): 3000 ng/mL | ED50 [2]: 1.9 mg/kg | ED50 [3]: > 25 mg/kg | ED50 [4]: 1.1 mg/kg | concentration at 0.5 h ([5]; 10 mg/kg, dose 10, 1/2 hour): 3300 ng/mL | concentration at 0.25 h ([5]; 10 mg/kg, dose 10, 1/4 hour): 4300 ng/mL | concentration at 1 h ([5]; 10 mg/kg, dose 10, 1 hour): 2500 ng/mL | concentration at 2 h ([5]; 10 mg/kg, dose 10, 2 hour): < 800 ng/mL | concentration at 0.5 h ([5]; 20 mg/kg, dose 20, 1/2 hour): 7400 ng/mL | concentration at 0.25 h ([5]; 20 mg/kg, dose 20, 1/4 hour): 10000 ng/mL | concentration at 1 h ([5]; 20 mg/kg, dose 20, 1 hour): 5800 ng/mL | concentration at 2 h ([5]; 20 mg/kg, dose 20, 2 hour): < 800 ng/mL | concentration at 0.5 h ([5]; 40 mg/kg, 1/2 hour): 14000 ng/mL | concentration at 0.25 h ([5]; 40 mg/kg, 1/4 hour): 20000 ng/mL | concentration at 1 h ([5]; 40 mg/kg, 1 hour): 10000 ng/mL | concentration at 2 h ([5]; 40 mg/kg, 2 hour): 3000 ng/mL | MIC [6]: 0.8 µg/mL | MIC [7]: 0.8 µg/mL | MIC [8]: > 100 µg/mL | MIC [9]: 1.6 µg/mL | MIC [10]: > 100 µg/mL | MIC [11]: > 100 µg/mL | MIC [12]: 0.4 µg/mL | MIC [13]: > 100 µg/mL | MIC [14]: 42 µg/mL | MIC [15]: 2.6 µg/mL | MIC [16]: 18 µg/mL | MIC [17]: 1.6 µg/mL | MIC [18]: 1.7 µg/mL | MIC [19]: > 100 µg/mL | MIC [20]: 22 µg/mL | MIC [21]: 14 µg/mL | MIC [22]: 59 µg/mL | MIC [23]: 3.7 µg/mL | MIC [24]: 29 µg/mL | ED50 [25]: 6.3 mg/kg | ED50 [26]: 3.2 mg/kg
